For this assay, the system named is Platelet Activating Factor (PAF)-induced bronchoconstriction. Put plainly: Effect on Bronchoconstriction Induced by Platelet Activating Factor (PAF) in Guinea Pigs (Konzett-Rossler method). The conditions noted are these: guinea pig; drug 10 mg/Kg orally 1 hour before PAF (1 μg/Kg, i.v.); recorded for 15 minutes. The format is in vivo, Male Hartley guinea pigs. The protocol:
Effect on Bronchoconstriction Induced by Platelet Activating Factor (PAF) in Guinea Pigs
Male Hartley guinea pigs (body weight 500 g) were used. The bronchoconstriction reaction in the guinea pig which has intravenously received PAF (1 μg/Kg) was measured by the Konzett-Rossler method. The trachea of the guinea pig with its back fixed was incised under anesthesia condition with urethane (intraperitoneal injection, 1.50 g/Kg) and connected with an artificial respirator via a cannula. The branch of the tracheal cannula was connected with a transducer (7020 type, Ugobasile). Air was sent to the trachea at the volume of 3-7 ml/stroke, at the stroke of 70 strokes/min. at load pressure of 10 cm H2 O to lung and overflowed air volume was recorded with Rectegraph (Recte-Hori-8s, Sanei Sokuki) via the transducer. After the guinea pig was treated with galamine (1 mg/Kg, i.v.), PAF (1 μg/Kg) dissolved in a physiological saline solution was administered to the guinea pig via a jugular venous cannula and the bronchoconstriction reaction induced thereby was recorded for 15 minutes. The drug (10 mg/Kg) suspended in a 5% gum arabic solution was administered orally 1 hour before the injection of PAF.

In the case of `NS(=O)(=O)CC1(COc2ccc3nccn3n2)CCCCC1` [Example 1, 6-[(2,2-pentamethylene-3-sulfamoylpropyl)oxy]imidazo[1,2-b]pyridazine], the “Inhibition (%) of PAF-induced bronchoconstriction” value is 72%.
The same measure for `NS(=O)(=O)CC1(COc2ccc3nccn3n2)CCCC1` [Example 2, 6-[(2,2-tetramethylene-3-sulfamoylpropyl)oxy]imidazo[1,2-b]pyridazine]: 78%; for `NS(=O)(=O)CC1(COc2ccc3nccn3n2)CCC1` [Example 3, 6-[(2,2-trimethylene-3-sulfamoylpropyl)oxy]imidazo[1,2-b]pyridazine]: 58%.
As for `NS(=O)(=O)CC1(COc2ccc3nccn3n2)CC1` [Example 4, 6-[(2,2-dimethylene-3-sulfamoylpropyl)oxy]imidazo[1,2-b]pyridazine], the “Inhibition (%) of PAF-induced bronchoconstriction” value worked out at 48%.
The same measure for `NS(=O)(=O)CC1(COc2ccc3nccn3n2)COC1` [Example 9, 6-[[2,2-(2-oxatrimethylene)-3sulfamoylpropyl]oxy]imidazo[1,2-b]pyridazine]: 51%; for `NS(=O)(=O)CC1(CSc2ccc3nccn3n2)CCC1` [Example 13, 6-[(2,2-trimethylene-3-sulfamoylpropyl)thio]imidazo[1,2-b]pyridazine]: 40%.

Source of the values: patent US5145850A, “Imidazopyridazines, their production and use” (Takeda Chemical Industries, Ltd., priority 1990, dated 1992).
